Experiment [1] relates to NMDA-induced seizure and death in mice. As to the kind of experiment: NMDA-induced seizure and death (100 mg/kg NMDA challenge). In kind it is in vivo. The conditions noted are these: steroid 25 mg/kg i.p., DMSO 50%. Here is the method: 5β3αHS (25 mg/kg, i.p.) protects mice from NMDA-induced death. None of the steroids tested altered the latency to NMDA-induced seizure. However, 100% of the animals that received 5β3αHS survived the 100 mg/kg NMDA challenge compared to 50% for DMSO, 75% for 5β3αS and E2 (3)HS, and 50% for E2 (17)HS.

The subject of experiment [2] is NMDA-induced convulsion and mortality in mice. As to the kind of experiment: NMDA-induced convulsion test (200 mg/kg NMDA). Type of experiment: in vivo. The conditions noted are these: mice, i.v. administration, FIG. 8. Here is the method:
Male CD-1 mice (Charles River Laboratories, Wilmington, Mass.) weighing 20-25 g were used for the NMDA-induced convulsion test. Mice were injected intraperitoneally with the test compound dissolved in DMSO or with vehicle. NMDA (200 mg/kg, i.p.) was injected either 2 minutes after intravenous injection of test compound or 20 minutes after intraperitoneal injection of test compound.

In experiment [3] the test system is mice. Description: Behavioral observational assessment after i.p. steroid. In kind it is in vivo. The conditions noted are these: 25 mg/kg i.p., 30 min. after injection. Here is the method:
To test for behavioral effects, PS, 5β3αS, 5β3αHS, βE2 (17)HS, or βE2 (3)HS (7 mg/ml in DMSO) was administered to mice i.p. at 25 mg/kg (5 animals per drug group). Behavioral assessments were made 30 min. after injection using a comprehensive observational assessment of motor-affective responses, sensory-motor responses, posture, muscle tone, equilibration, CNS excitation, and autonomic function (Irwin, R. P., et al., NeuroSci. Lett., 141:30-44 (1968)). […] The latency to loss of righting reflex was 2.5±0.5 min., and the latency to regain the righting reflex was 83±11 min. The rapidity of onset argues that 5β3αHS readily crosses the blood brain barrier.

The subject of experiment [4] is glutamate receptor-mediated spontaneous EPSCs in rat hippocampal neurons. Description: Spontaneous excitatory postsynaptic currents (EPSCs), whole-cell recording in cultured hippocampal neurons. In kind it is cell-based. Here is the method: Primary cultures of hippocampal neurons were prepared from embryonic day 18 rats. Cultured neurons were used in experiments 2-3 weeks after plating.
Spontaneous excitatory postsynaptic currents were recorded by the whole-cell variant of the patch clamp technique. The pipet solution usually contained (in mM) KCl 10, EGTA 11, sodium gluconate 3, potassium gluconate 140 and HEPES 10, adjusted to pH 7.2 with KOH. The bath solution contained (in mM) NaCl 150, KCl 4, CaCl2 1, and HEPES 10, adjusted to pH 7.2 with NaOH. Because NMDA-induced currents are subject to voltage-dependent block by extracellular Mg^2+, no magnesium salts were added to the bath solution. All records were made with the cell membrane potential clamped at -70 mV, which is very close to the Cl- equilibrium potential. Therefore, IPSCs are not expected to be observed and spontaneous activity should consist of EPSCs. The complete blockage of spontaneous activity by the co-application of the NMDA receptor antagonist APV and the non-NMDA receptor antagonist DNQX argues that the observed spontaneous activity is glutamate receptor-mediated.
Drug solutions were applied to single neurons by pressure ejection (15 psi) from 7-barrel pipets (tip opening ~3-5 μm) positioned ~50 μm from the neuronal soma. In all experiments, neurons received a 40s application of either steroid or steroid plus antagonist(s), followed by 10-20s pulse of external buffer solution.

Turning to `C[C@]12CC[C@@H]3c4ccc(O)cc4CC[C@H]3[C@@H]1CC[C@@H]2OC(=O)CCC(=O)O` [17βE(17)HS, 17β-estradiol-17-hemisuccinate], the “animals that survived the 100 mg/kg NMDA challenge” value in experiment [1] is recorded as 50%. In addition, in experiment [2], the “seizures and mortality induced by NMDA” value is “effective in blocking seizures and mortality”. Moreover, the “behavioral assessment” value in experiment [3] is recorded as “very minor behavioral impairment”.

In the case of `C[C@]12CC[C@@H]3c4ccc(OC(=O)CCC(=O)O)cc4CC[C@H]3[C@@H]1CC[C@@H]2O` [17βE(3)HS, 17β-estradiol-3-hemisuccinate], the “animals that survived the 100 mg/kg NMDA challenge” value in experiment [1] is 75%. Further, in experiment [2], the “seizures and mortality induced by NMDA” value was “effective in blocking seizures and mortality”. Further, the “behavioral assessment” value in experiment [3] is given as “very minor behavioral impairment”.

As to `CC(=O)[C@H]1CC[C@H]2[C@@H]3CC=C4C[C@@H](OS(=O)(=O)O)CC[C@]4(C)[C@H]3C(=O)C[C@]12C` [11-keto PS], the activation at 100 µM in experiment [4] (Rattus norvegicus, Hippocampal neuron, 100 μM steroid, read-out: percentage potentiation of EPSCs) was 19 ± 15%. Also, the “effect on spontaneous EPSCs” value in experiment [4] (cultures of rat hippocampal neurons) is reported as “has no effect on EPSCs”.

For the origin of these results see patent publication US6083941A, “Inhibition of NMDA receptor activity by pregnenolone sulfate derivatives” (Trustees of Boston University, priority 1998, dated 2000).
